The source of these data is patent publication US12064427B2, “Pharmaceutical compositions comprising (S)-4-(4-(4-(((2-(2,6-dioxopiperidin-3-yl)-1-oxoisoindolin-4-yl)oxy)methyl)benzyl)piperazin-1-yl)-3-fluorobenzonitrile and methods of using the same” (Celgene Corporation, priority 2019, dated 2024).

Data set [1] in a line: Binary drug-excipient compatibility study. The note with it: binary mixture with Compound 1, open dish, 50° C./75% RH, 3 and 6 weeks vs 5° C. control.
Protocol: A binary drug-excipient compatibility study was conducted to identify suitable excipients for capsule formulation. These binary mixtures were studied in open dish and subjected to 5° C. (control) and 50° C./75% RH conditions for 3 and 6 weeks respectively. Selective samples have been tested for chemical (impurities/degradants) and racemization (loss of chiral purity).
The test system of data set [2] is OPM2-P10. In words: Cell proliferation assay (CellTitre-Glo, 120 h). The note with it: Homo sapiens, read-out: OPM-2.P10 120 h IC50.
Protocol: (§2) All cell lines were kept in log phase, and cell density and viability were monitored by trypan blue exclusion using the Vi-cell XR cell viability analyzer (Beckman Coulter, Brea, CA).
(§3) A 10-point dose response starting at 10 μM with a 1:3 dilution was printed in duplicate by acoustic dispense using the EDC ATS-100 platform. Alternatively, the 10-point dose response starting at 10 μM with a 1:10 dilution, or starting at 100 nM with a 1:3 dilutions were used.
(§4) Hematological cell lines were dispensed into compound plates by a Multidrop Combi Reagent Dispenser (Thermo Scientific, Waltham, MA) at a concentration of 0.1×10^6 cells per mL in a 50 μL total volume. At 120 h, 25 μL per well of CTG was dispensed by a Multidrop Combi Reagent Dispenser and adenosine triphosphate (ATP) release by viable cells was measured as relative luminescence units after 30 minutes using the Envision platform.
(§5) Proliferation was assessed using the CellTitre-Glo® assay.
Data set [3] has as its system MM cell lines. Nature of the data set: Cell proliferation assay (CellTitre-Glo, 120 h), four lines together. The note with it: Homo sapiens, read-out: antiproliferative IC50 values.
Protocol: as §2, §3, §4, §5
Data set [4] can be described thus: Two-stage dissolution (precipitation risk) of 2 mg BIC. The note with it: based on two-stage dissolution findings. The format is physicochemical. The method, then: The precipitation risk of prototype BIC formulations were studied by a two-stage method (Stage 1 under sink condition and Stage 2 under non-sink condition) for high strength (2 mg).
A two-stage dissolution study was carried out on prototype formulations, wherein the dissolution medium for Stage 1 was 0.01N HCl. […] Based on the two-stage dissolution findings the precipitation risk is considered low for Compound 1.

The test system of data set [5] is OPM2. Nature of the data set: Cell proliferation assay (CellTitre-Glo, 120 h). The note with it: Homo sapiens, OPM-2, 120 h, read-out: OPM-2 120 h IC50.
Protocol: as §2, §3, §4, §5
The target in data set [6] is T1, dopamine D2S receptor (Homo sapiens, UniProt P14416).
T1 construct: host or cells: HEK-293
Nature of the data set: Dopamine D2S receptor binding at 10 μM (transfected HEK-293 membranes). The note with it: inhibition of control radioligand binding. The method, then:
(§1) α1 Adrenergic and Dopamine D2 Receptors. Methods: Binding and functional assays for al adrenergic and dopamine D2 receptors were performed by Eurofins Cerep according to their methods.
Dopamine D2 Receptor. Binding at 10 μM. The binding assay evaluated the affinity of test articles for the dopamine D2 receptor in transfected human embryonic kidney (HEK)-293 cells. For determining the binding in the D2S receptor assay, test article was incubated with 0.3 nM [^3H] methylspiperone or 1 nM [^3H] 7-hydroxy-2-N,N-dipropylaminotetralin (7-OH-DPAT). [^3H] Methylspiperone at 0.3 nM also was used as control ligand in the D2L binding assay. Cell membrane homogenates were incubated in duplicate at room temperature for 60 minutes with ligand in the absence or presence of test articles at 10 μM. After the incubation period, samples were filtered through glass fiber filters, the filters dried and then counted for radioactivity using a scintillation counter. Results are expressed as mean percent inhibition of control radioligand binding.

For data set [7], the system named is NCI-H929-1051. Nature of the data set: Cell proliferation assay (CellTitre-Glo, 120 h). The note with it: Homo sapiens, read-out: NCI-H929.1051 120 h IC50.
Protocol: as §2, §3, §4, §5
Data set [8] deals with NCI-H929. In words: Cell proliferation assay (CellTitre-Glo, 120 h). The note with it: Homo sapiens, NCI-H929, 120 h, read-out: NCI-H929 120 h IC50.
Protocol: as §2, §3, §4, §5
Data set [9] can be described thus: Water activity testing. Type of data set: physicochemical. The text has this: Water activity is a measure of how tightly bound the water is within a substance. To measure water activity, a sample is placed in a sealed vessel which is allowed to reach equilibrium. The final relative humidity (RH) in the vessel is reported as a fraction called “Aw”. Pure water has an Aw of 1.00. […] HygroLab 3 Bench Top Indicator was used to determine water activity testing. Before testing the samples, the equipment is calibrated at different relative humidity levels using RH standards (0% RH, 35% RH, and 80% RH) and at different temperatures to ensure accuracy of the probes. A known amount of sample is sealed inside the sample cell by twisting the cap in downward direction. The starting temperature is recorded before beginning the test. When the change in temperature before and after the test is not more than 0.5° C. record Aw.

For data set [10] the following is noted: acidifiers evaluated; cited from earlier work.
The subject of data set [11] is α1 adrenergic receptor. Nature of the data set: α1 adrenergic receptor binding at 10 μM ([3H]prazosin, cerebral cortex membranes). Also on record: species or system rat. The note with it: inhibition of control radioligand binding. The procedure:
as §1
α1 Adrenergic Receptor. Binding at 10 μM. The binding assay evaluated the affinity of test article for the non-selective al adrenergic receptor in rat cerebral cortex. Membrane homogenates of cerebral cortex were incubated in duplicate for 60 minutes at room temperature with 0.25 nM [^3H]prazosin in the absence or presence of test articles at 10 μM. After the incubation period, samples were filtered through glass fiber filters, the filters dried and then counted for radioactivity using a scintillation counter. Results are expressed as mean percent inhibition of control radioligand binding.

T1 sequence (P14416 1-414 isoform P14416-2): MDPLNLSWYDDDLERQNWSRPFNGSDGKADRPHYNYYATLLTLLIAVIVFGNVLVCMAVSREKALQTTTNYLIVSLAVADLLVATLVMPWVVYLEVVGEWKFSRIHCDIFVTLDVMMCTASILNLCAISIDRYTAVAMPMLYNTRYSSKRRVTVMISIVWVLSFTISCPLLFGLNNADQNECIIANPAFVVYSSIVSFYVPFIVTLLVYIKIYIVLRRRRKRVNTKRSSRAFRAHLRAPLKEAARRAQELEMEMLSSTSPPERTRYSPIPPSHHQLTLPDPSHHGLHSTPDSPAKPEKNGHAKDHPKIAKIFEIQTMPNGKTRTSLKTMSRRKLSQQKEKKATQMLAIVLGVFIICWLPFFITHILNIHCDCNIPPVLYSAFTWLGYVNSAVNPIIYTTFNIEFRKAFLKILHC

For `CCCCCCCCCCCCOS(=O)(=O)[O-].[Na+]` [sodium lauryl sulfate (SLS), sodium lauryl sulfate], the “compatibility of excipient with the drug substance (chemical degradation, chiral purity)” value (from here on “compatibility of excipient”) in data set [1] is “loss of chiral purity and increase in chemical degradation chiefly by hydrolysis”.
In the case of `O=C(O)/C=C/C(=O)O` [fumaric acid], the “compatibility of excipient” value in data set [1] is given as “more compatible acidifier”.
Consider `OC[C@@H](O)[C@@H](O)[C@H](O)[C@H](O)CO` [Mannitol], for which the “compatibility of excipient” value in data set [1] is recorded as “compatible, with some hydrolytic chemical degradation”.
As a reminder, the IC50 is the concentration that gives 50% inhibition. As to `N#Cc1ccc(N2CCN(Cc3ccc(COc4cccc5c4CN([C@H]4CCC(=O)NC4=O)C5=O)cc3)CC2)c(F)c1` [Compound 1, (S)-4-(4-(4-(((2-(2,6-dioxopiperidin-3-yl)-1-oxoisoindolin-4-yl)oxy)methyl)benzyl)piperazin-1-yl)-3-fluorobenzonitrile], the IC50 in data set [2] is 4.3 nM; in data set [3] it was 0.07 to 4.3 nM; in [5] it was 0.07 nM; in [7] it was 1 nM; in [8], 0.07 nM. The precipitation risk result in [4] is given as “low”. For the same molecule, the “Dopamine D2S % Inh. (@10 μM)” value in [6] was 55/52.
For `N#Cc1ccc(N2CCN(Cc3ccc(COc4cccc5c4CN([C@H]4CCC(=O)NC4=O)C5=O)cc3)CC2)c(F)c1` [Form K of Compound 1, (S)-4-(4-(4-(((2-(2,6-dioxopiperidin-3-yl)-1-oxoisoindolin-4-yl)oxy)methyl)benzyl)piperazin-1-yl)-3-fluorobenzonitrile], in data set [9], the “RH at which Form K converts to an anhydrous form” value was under 20%.
As usually defined, the pKa is the pH at which an ionisable group is half protonated. As to `O=C(O)CCC(=O)O` [succinic acid], the “compatibility of excipient” value in data set [1] is recorded as “chemically incompatible”. In addition, in data set [10], the pKa is listed as 4.18.
Turning to `CCCCCCCCCCCCCCCCCC(=O)O` [Stearic Acid], the “compatibility of excipient” value in [1] is given as “chemically compatible”.
On to `OC[C@H]1O[C@@H](O[C@H]2[C@H](O)[C@@H](O)C(O)O[C@@H]2CO)[C@H](O)[C@@H](O)[C@H]1O` (stereo partly shown) [Lactose], for which the “compatibility of excipient” value in [1] is “compatible with little decrease in chiral purity”.
For `O=C1CCC(N2Cc3c(OCc4ccc(CN5CCN(c6ccc(F)cc6F)CC5)cc4)cccc3C2=O)C(=O)N1` (racemic) [Compound A, 3-(4-((4-((4-(2,4-difluorophenyl)piperazin-1-yl)methyl)benzyl)oxy)-1-oxoisoindolin-2-yl)piperidine-2,6-dione], the “Adrenergic α1 % Inh. (@10 μM)” value in data set [11] turned out to be 102%.
